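Abbreviation: GI50, concentration required for 50% inhibition of growth. TGI denotes the concentration required for complete inhibition of growth.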
How the values were obtained:
Experiment in all cases: growth of human tumour cells (NCI), 384-well format
[1] = tested on: 786-0 renal
[2] = tested on: A498 renal
[3] = tested on: A549 NSCLC
[4] = tested on: ACHN renal
[5] = tested on: BT-549 breast
[6] = tested on: CAKI-1 renal
[7] = tested on: CCRF-CEM leukemia
[8] = tested on: COLO 205 colon
[9] = tested on: DU-145 prostate
[10] = tested on: EKVX NSCLC
[11] = tested on: HCC-2998 colon
[12] = tested on: HCT-15 colon
[13] = tested on: HL-60(TB) leukemia
[14] = tested on: HOP-62 NSCLC
[15] = tested on: HOP-92 NSCLC
[16] = tested on: HS 578T breast
[17] = tested on: HT29 colon
[18] = tested on: IGROV1 ovarian
[19] = tested on: KM12 colon
[20] = tested on: M14 melanoma
[21] = tested on: MALME-3M melanoma
[22] = tested on: MCF7 breast
[23] = tested on: MDA-MB-231 breast
[24] = tested on: MDA-MB-435 melanoma
[25] = tested on: MDA-MB-468 breast
[26] = tested on: MOLT-4 leukemia
[27] = tested on: NCI-H226 lung
[28] = tested on: NCI-H23 lung

O=c1ccn(C2OC(CO)C(O)C2F)c(=O)[nH]1 (stereo unspecified)
GI50 [1]: > 100 µM | TGI [1]: > 100 µM | GI50 [2]: > 100 µM | TGI [2]: > 100 µM | GI50 [3]: > 100 µM | TGI [3]: > 100 µM | GI50 [4]: > 100 µM | TGI [4]: > 100 µM | GI50 [5]: > 100 µM | TGI [5]: > 100 µM | GI50 [6]: > 100 µM | TGI [6]: > 100 µM | GI50 [7]: 37.3 µM | TGI [7]: > 100 µM | GI50 [8]: > 100 µM | TGI [8]: > 100 µM | GI50 [9]: > 100 µM | TGI [9]: > 100 µM | GI50 [10]: > 100 µM | TGI [10]: > 100 µM | GI50 [11]: > 100 µM | TGI [11]: > 100 µM | GI50 [12]: > 100 µM | TGI [12]: > 100 µM | GI50 [13]: > 100 µM | TGI [13]: > 100 µM | GI50 [14]: > 100 µM | TGI [14]: > 100 µM | GI50 [15]: > 100 µM | TGI [15]: > 100 µM | GI50 [16]: > 100 µM | TGI [16]: > 100 µM | GI50 [17]: > 100 µM | TGI [17]: > 100 µM | GI50 [18]: > 100 µM | TGI [18]: > 100 µM | GI50 [19]: > 100 µM | TGI [19]: > 100 µM | GI50 [20]: > 100 µM | TGI [20]: > 100 µM | GI50 [21]: > 100 µM | TGI [21]: > 100 µM | GI50 [22]: > 100 µM | TGI [22]: > 100 µM | GI50 [23]: > 100 µM | TGI [23]: > 100 µM | GI50 [24]: > 100 µM | TGI [24]: > 100 µM | GI50 [25]: > 100 µM | TGI [25]: > 100 µM | GI50 [26]: 53.1 µM | TGI [26]: > 100 µM | GI50 [27]: > 100 µM | TGI [27]: > 100 µM | GI50 [28]: > 100 µM | TGI [28]: > 100 µM

From PubChem BioAssay (NCI)
